Test results as given in patent US11970489B1, “4-[(substituted 1H-benzimidazol-2-ylsulfanyl)methyl]-6-substituted-2H-chromen-2-ones as larvicidal agents” (KING FAISAL UNIVERSITY, priority 2023, dated 2024).
Read-outs that look alike come from different tables or passages of the source.

Legend:
[1] = system: Anopheles arabiensis; assay: Larvicidal screening (WHO protocol), 3rd instar larvae; format: in vivo
Experimental: Anopheles arabiensis was used in the study according to the protocol described by WHO (1975) guidelines in an insectary simulating the temperature (27.5° C.), humidity (70%), and lighting (12/12) of a malaria-endemic environment. One mL of test compound (1 mg/mL) was added to 1 mL of acetone and followed by […] of distilled water to obtain a final concentration of 4 μg/mL. Thirty individuals of 3rd instar larvae were introduced into a container. Negative control was set up using the solvent (acetone) and distilled water, and a positive control included Temephos, which is an active emulsified organophosphate larvicidal used by malaria control programs. Larval mortality was examined for each container separately for 24 h and fed specially made cat food that contained less oil/fat content. The percentage of mortality was determined relative to the initial number of larvae exposed.
Differences in larval mortality between treatments were assessed with generalized linear models using a quasi-Poisson link function. Anopheles arabiensis mortality was the dependent variable, while fixed effects were test compounds and observation period (24 and 48 h). A p-value <0.05 was considered statistically significant. Throughout the text, the results are presented as the adjusted mean the standard error.

melting point [°C]	SMILES	mortality at 4 µg/mL ([1]; 24 h, read-out: Mortality 24 h) [%]	mortality at 4 µg/mL ([1]; 48 h, read-out: Mortality 48 h) [%]
	CC(C)(C)c1ccc2oc(=O)cc(CSc3nc4ccccc4s3)c2c1 [Compound 3i, 4-[(1,3-Benzothiazol-2-ylsulfanyl)methyl]-6 tert-butyl-2H-chromen-2-one]	89.9 ± 2.44	94.7 ± 2.11
176 to 178	COc1ccc2nc(SCc3cc(=O)oc4ccc(C)cc34)[nH]c2c1		
	Cc1ccc2oc(=O)cc(CSc3nnc(C)s3)c2c1 [Compound 3e, 6-Methyl-4-{[(5-methyl-1,3,4-thiadiazol-2-yl)sulfanyl]methyl}-2H-chromen-2-one]	77.2 ± 2.02	82.2 ± 1.93
212 to 214	CC(C)(C)c1ccc2oc(=O)cc(CSc3nc4ccccc4o3)c2c1		
	Cc1nnc(SCc2cc(=O)oc3ccc(C(C)(C)C)cc23)s1 [Compound 3j, 4-{[(5-Methyl-1,3,4-thiadiazol-2-yl)sulfanyl]methyl}-6 tert-butyl-2H-chromen-2-one]	94.7 ± 2.61	95.1 ± 2.09
190 to 192	Cc1ccc2oc(=O)cc(CSc3nc4ccccc4[nH]3)c2c1		
	COP(=S)(OC)Oc1ccc(Sc2ccc(OP(=S)(OC)OC)cc2)cc1 [Temephos, reference compound]	98.9 ± 2.7	100 ± 2.71
189 to 190	CC(C)(C)c1ccc2oc(=O)cc(CSc3nc4ccccc4[nH]3)c2c1		
192 to 194	Cc1ccc2oc(=O)cc(CSc3nc4ccccc4s3)c2c1		
	Cc1ccc2oc(=O)cc(CSc3nc4ccccc4o3)c2c1 [Compound 3c, 4-[(1,3-Benzoxazol-2-ylsulfanyl)methyl]-6-methyl-2H-chromen-2-one]	70.1 ± 2.29	75.8 ± 2.21
